# Experimental data as given in patent US20260364124A1, “ANTI-C. DIFFICILE SMALL MOLECULE METABOLITES FROM DIET AND GUT MICROBIOME” (The Children's Medical Center Corporation, priority 2023, published 2026).
# “Also recorded” adds a separate entry of the source.
# Legend:
# [1] = system: C. difficile isolates; test: Phytochemical microbial killing assay, diverse C. difficile isolates; format: cell-based, Clostridioides difficile
# Method: FIG. 3B provides a heatmap of growth of 20 Clostridioides difficile isolates in the absence of presence of the polyphenolic glycoside polydatin or the Bacteroides liberated aglycone resveratrol. […] Growth induction or inhibition is measured as the ratio of growth in media (AUC) supplemented with glucose and 150 μM polydatin or resveratrol versus growth in media (AUC) supplemented with glucose and vehicle. Value>1 is representative of enhanced growth in compound and value <1 is representative of inhibition of growth in compound.
# Bacterial isolates were grown in vitro in media plus compound. Killing was measured by bacterial culture optical density (proxy for amount of bacteria in a culture).
# Phytochemical microbial killing assays: All gut pathogen isolates were grown on brain-heart-infusion supplemented with hemin (50 mg/L) and vitamin K1 (0.25 mg/L) (BHIS) agar plates or in basal media (BSG; proteose peptone (20 g/L), yeast (5 g/L), NaCl (5 g/L), glucose (5 g/L), potassium phosphate dibasic (5 g/L), cysteine (0.5 g/L), hemin (50 mg/L), and vitamin K1 (0.25 mg/L). Isolates were recovered on and grown in pre-reduced media in a Coy anaerobic chamber (Coy Labs). To determine the fitness effects of phloridzin hydrate (TCI), phloretin (TCI), polydatin (TCI), and resveratrol (TCI) on enteric pathogen fitness, each pathogen isolate was recovered on a BHIS agar plate and incubated anaerobically at 37 °C for 48 h. A starter culture (1 mL) of BSG was inoculated with C. difficile and grown for 15 h. This starter culture was then used to inoculate a BSG sub-culture (1 mL) at a final dilution of 1:10. This sub-culture was grown for 3 h to an OD600~0.5 before being used to inoculate experimental cultures at a final dilution of 1:50. The experimental media consisted of a modified YCFA media (mYCFA; casitone (2.5 g/L), yeast extract (0.625 g/L), cysteine (0.5 g/L), magnesium sulfate heptahydrate (f.c. 365 μM), calcium chloride dihydrate (f.c. 610 μM), sodium bicarbonate (4 g/L), dipotassium phosphate (0.45 g/L), monopotassium phosphate (0.45 g/L), sodium chloride (0.9 g/L), sodium acetate (2.71 g/L), Hemin (50 mg/L), Vitamin K1 (0.25 mg/L), ferrous sulfate (4 μg/mL), ATCC vitamin mix (1% v/v)) supplemented with glucose (15 mM, Sigma) plus each compound (150 μM) or glucose (15 mM, Sigma) plus DMSO (0.15%, Sigma). Bacterial growth was monitored by measuring the optical density at 600 nm (OD600) of each culture in a 384 well plate with an Epoch2 spectrophotometer (BioTek Instruments) and MicroPlate stacker (Agilent BioTek) for 24 hours.
# [2] = system: B. uniformis; test: In vitro aglycone liberation by wildtype B. uniformis (LC-MS); parameters: species or system Bacteroides uniformis ATCC 8492; details: role: substrate; B. uniformis cultivated with polydatin (FIG. 2)
# Source text: Comparative LC-MS EICs (Extracted Ion Chromatogram) of methanol-water extracts of bacterial cultures supplemented with each polyphenolic glycoside after eight hours are provided. The trace labeled “A” corresponds to the EIC of each glycoside, and the trace labeled “B” corresponds to the EIC of each aglycone. The portion of the trace “B” peak overlapping the trace “A” peak corresponds to the aglycone detected from fragmentation of the glycoside at the ionization source and is a technical artifact.
# FIGS. 5A and 5B show microbiome-mediated polyphenol aglycone liberation. […] Step 2: Spent media was filter-sterilized. Step 3: C. difficile was grown in spent media from either vehicle or polydatin (top).
# In vitro aglycone liberation: All B. uniformis strains were grown on brain-heart-infusion supplemented with hemin (50 mg/L) and vitamin K1 (0.25 mg/L) (BHIS) agar plates or in basal media (BSG; proteose peptone (20 g/L), yeast (5 g/L), NaCl (5 g/L), glucose (5 g/L), potassium phosphate dibasic (5 g/L), cysteine (0.5 g/L), hemin (50 mg/L), and vitamin K1 (0.25 mg/L). All isolates were recovered on and grown in pre-reduced media in a Coy anaerobic chamber (Coy Labs).
# To assess the capacity of Bacteroides to liberate aglycones from their parent polyphenolic glycosides, B. uniformis ATCC 8492 WT and AgshD were recovered on a BHIS agar plate and incubated anaerobically at 37 °C for 48 h. A starter culture (1 mL) of BSG was inoculated with each isolate and grown for 15 h. This starter culture was then used to inoculate a BSG sub-culture (1 mL) at a final dilution of 1:10. […]
# For polyphenolic glycoside and aglycone-containing samples, samples were dried under nitrogen flow and resuspended in 50 μl of methanol 50% in water. […] Samples were quantified on a QEplus mass spectrometer coupled to an Ultimate 3000 LC (Thermo fisher). […] Quantification was performed using Tracefinder (Thermo fisher), using the ratio of the area under the peak for each compound and of the internal standard, using the accurate mass of the [M−H]^− ions.
structure (smiles),measurement,setting,value
OC[C@H]1O[C@@H](Oc2cc(O)cc(/C=C/c3ccc(O)cc3)c2)[C@H](O)[C@@H](O)[C@@H]1O [polydatin],growth inhibition of Clostridioides difficile,"[1]; 150 μM, 20 C. difficile isolates, growth ratio (AUC) vs vehicle (FIG. 3B)",did not; also recorded: but not its parent glycoside polydatin
same,killing / growth inhibition of diverse C. difficile isolates,"[1]; in vitro, media plus compound, culture optical density (FIG. 4)",did not
same,liberation of resveratrol from polydatin,[2],liberated resveratrol
